Measured values as given in ChEMBL document CHEMBL5126582, “Discovery of (2-(pyrrolidin-1-yl)thieno[3,2-d]pyrimidin-4-yl)(3,4,5-trimethoxyphenyl)methanone as a novel potent tubulin depolymerizing and vascular disrupting agent” (Eur J Med Chem, 2022).
pIC50: −log10 of the molar value. Calls of active or inactive are those of the source. No cut-off for these calls is given here.

Tests used:
HeLa [1] = experiment: Induction of apoptosis in human HeLa cells assessed as late apoptotic cells at 500 nM incubated for 24 hrs by annexin V FITC and propidium iodide staining based flow cytometry analysis (reference value: 0.05%); assay type: functional
HeLa [2] = experiment: Induction of apoptosis in human HeLa cells assessed as early apoptotic cells at 500 nM incubated for 24 hrs by annexin V FITC and propidium iodide staining based flow cytometry analysis (reference value: 0.12%); assay type: functional
HeLa [3] = experiment: Inhibition of cell migration in human HeLa cells at 10 to 1000 nM measured up to 24 hrs wound healing assay; assay type: functional, cell-based; details: dose 10-1000 nM, DDE = dose-dependent effect
HeLa [4] = experiment: Induction of apoptosis in human HeLa cells assessed as necrotic cells at 100 nM incubated for 48 hrs by annexin V FITC and propidium iodide staining based flow cytometry analysis (reference value: 1.85 %); assay type: functional
Tubulin = Tubulin (Sus scrofa, UniProt P02554+P02550); experiment: Inhibition of pig brain tubulin polymerization incubated for 19 mins by spectrophotometric method
HeLa [5] = experiment: Induction of apoptosis in human HeLa cells assessed as necrotic cells at 750 nM incubated for 72 hrs by annexin V FITC and propidium iodide staining based flow cytometry analysis (reference value: 2.88 %); assay type: functional
HeLa [6] = experiment: Induction of mitochondrial membrane potential alteration in human HeLa cells assessed as viable cells at 500 nM measured after 48 hrs by JC1 staining-based flow cytometry analysis (reference value: 90.9%); assay type: functional; details: read-out: Activity
HeLa [7] = experiment: Induction of apoptosis in human HeLa cells assessed as early apoptotic cells at 1 uM incubated for 48 hrs by annexin V FITC and propidium iodide staining based flow cytometry analysis (reference value: 6.01%); assay type: functional
[8] = Metabolic stability in rat liver microsomes assessed as intrinsic clearance incubated for 5 mins in presence of NADPH by HPLC analysis; assay type: ADME, Microsome; details: read-out: CLH
[9] = Metabolic stability in rat liver microsomes incubated for 5 mins in absence of NADPH by HPLC analysis; assay type: ADME, Microsome
Tubulin (Homo sapiens) = Tubulin (Homo sapiens) (UniProt P68371+Q9H4B7+P0DPH7+P68366+Q13509+Q71U36+P04350+Q3ZCM7+P07437+P68363+Q9BQE3+Q6PEY2+Q13885+Q9BVA1+Q9BUF5); experiment: Disruption of microtubule network in human HeLa cells at 100 to 500 nM incubated for 3 hrs by laser confocal microscopy analysis; assay type: cell-based; details: dose 100-500 nM, DDE = dose-dependent effect
HeLa [10] = experiment: Induction of cell cycle arrest in human HeLa cells assessed as accumulation of cells at G2/M phase at 100 to 2000 nM incubated for 24 to 48 hrs by […] flow cytometry; assay type: functional; details: dose 100-2000 nM, time 24-48 hrs, DDE = dose-dependent effect
HeLa [11] = experiment: Induction of apoptosis in human HeLa cells assessed as necrotic cells at 500 nM incubated for 24 hrs by annexin V FITC and propidium iodide staining based flow cytometry analysis (reference value: 1.14 %); assay type: functional
HeLa [12] = experiment: Induction of apoptosis in human HeLa cells assessed as late apoptotic cells at 100 nM incubated for 72 hrs by annexin V FITC and propidium iodide staining based flow cytometry analysis (reference value: 4.70%); assay type: functional
HeLa [13] = experiment: Induction of apoptosis in human HeLa cells assessed as necrotic cells at 1 uM incubated for 48 hrs by annexin V FITC and propidium iodide staining based flow cytometry analysis (reference value: 1.85 %); assay type: functional
HeLa [14] = experiment: Induction of apoptosis in human HeLa cells assessed as late apoptotic cells at 750 nM incubated for 48 hrs by annexin V FITC and propidium iodide staining based flow cytometry analysis (reference value: 8.87%); assay type: functional
HeLa [15] = experiment: Induction of mitochondrial membrane potential alteration in human HeLa cells assessed as early apoptotic cells at 1 uM measured after 48 hrs by JC1 staining-based flow cytometry analysis (reference value: 9.07 %); assay type: functional
HeLa [16] = experiment: Induction of apoptosis in human HeLa cells assessed as necrotic cells at 1 uM incubated for 24 hrs by annexin V FITC and propidium iodide staining based flow cytometry analysis (reference value: 1.14 %); assay type: functional
HeLa [17] = experiment: Induction of apoptosis in human HeLa cells assessed as viable cells at 1 uM incubated for 48 hrs by annexin V FITC and propidium iodide staining based flow cytometry analysis (reference value: 85.5%); assay type: functional; details: read-out: Activity
HUVEC = experiment: Antivascular activity against human HUVEC cells assessed as inhibition of tube formation at 500 nM incubated for 3 hrs by matrigel matrix based microscopic analysis; assay type: functional, cell-based
HeLa [18] = experiment: Induction of apoptosis in human HeLa cells assessed as viable cells at 500 nM incubated for 72 hrs by annexin V FITC and propidium iodide staining based flow cytometry analysis (reference value: 90.1%); assay type: functional; details: read-out: Activity
HeLa [19] = experiment: Induction of apoptosis in human HeLa cells assessed as necrotic cells at 100 nM incubated for 24 hrs by annexin V FITC and propidium iodide staining based flow cytometry analysis (reference value: 1.14 %); assay type: functional
HeLa [20] = experiment: Induction of mitochondrial membrane potential alteration in human HeLa cells assessed as early apoptotic cells at 500 nM measured after 48 hrs by JC1 staining-based flow cytometry analysis (reference value: 9.07 %); assay type: functional
HeLa [21] = experiment: Induction of apoptosis in human HeLa cells assessed as late apoptotic cells at 1 uM incubated for 48 hrs by annexin V FITC and propidium iodide staining based flow cytometry analysis (reference value: 8.87%); assay type: functional
HeLa [22] = experiment: Induction of mitochondrial membrane potential alteration in human HeLa cells assessed as late apoptotic cells at 750 nM measured after 48 hrs by JC1 staining-based flow cytometry analysis (reference value: 0.009%); assay type: functional
HeLa [23] = experiment: Induction of apoptosis in human HeLa cells assessed as early apoptotic cells at 500 nM incubated for 72 hrs by annexin V FITC and propidium iodide staining based flow cytometry analysis (reference value: 2.36%); assay type: functional
HeLa [24] = experiment: Induction of apoptosis in human HeLa cells assessed as late apoptotic cells at 100 nM incubated for 48 hrs by annexin V FITC and propidium iodide staining based flow cytometry analysis (reference value: 8.87%); assay type: functional
HeLa [25] = experiment: Induction of cell cycle arrest in human HeLa cells assessed as reduction of cells at G1 phase at 100 to 2000 nM incubated for 24 to 48 hrs by […] flow cytometry; assay type: functional; details: dose 100-2000 nM, time 24-48 hrs
[26] = Resistance index, ratio of IC50 for antiproliferative activity against human A549/PTX cells assessed as reduction in cell viability to IC50 for antiproliferative activity against human A549 cells assessed as reduction in cell viability; assay type: functional
A549 = experiment: cells; details: Homo sapiens, A549, 48 h
Description: Antiproliferative activity against human A549 cells assessed as reduction in cell viability incubated for 48 hrs by MTS assay

HeLa [27] = experiment: Induction of mitochondrial membrane potential alteration in human HeLa cells assessed as viable cells at 1 uM measured after 48 hrs by JC1 staining-based flow cytometry analysis (reference value: 90.9%); assay type: functional; details: read-out: Activity
HeLa [28] = experiment: Induction of mitochondrial membrane potential alteration in human HeLa cells assessed as necrotic cells at 500 nM measured after 48 hrs by JC1 staining-based flow cytometry analysis (reference value: 0%); assay type: functional

COc1cc(C(=O)c2nc(N3CCCC3)nc3ccsc23)cc(OC)c1OC
Activity (HeLa [1]): 6.42% | Activity (HeLa [2]): 6.1% | inhibition (HeLa [3]): Dde | Activity (HeLa [4]): 2.38% | IC50 (Tubulin): 1600 nM | Activity (HeLa [5]): 40.8% | viability at 0.5 µM (HeLa [6]): 66.9% | Activity (HeLa [7]): 2.09% | microsomal CLint [8]: 40.8 µL/min/mg | Stability [9]: Stable | Activity (Tubulin (Homo sapiens)): Dde | Activity (HeLa [10]): Dde | Activity (HeLa [11]): 1.74% | Activity (HeLa [12]): 8.57% | Activity (HeLa [13]): 46.3% | Activity (HeLa [14]): 33.1% | Activity (HeLa [15]): 55.3% | Activity (HeLa [16]): 4.52% | viability at 1 µM (HeLa [17]): 0.77% | Activity (HUVEC): Active | viability at 0.5 µM (HeLa [18]): 32.6% | Activity (HeLa [19]): 1.52% | Activity (HeLa [20]): 33.1% | Activity (HeLa [21]): 41.2% | Activity (HeLa [22]): 0.077% | Activity (HeLa [23]): 0.734% | Activity (HeLa [24]): 5.18% | Activity (HeLa [25]): Active | Ratio IC50 [26]: 1.7 | pIC50 (A549): 7.85 | viability at 1 µM (HeLa [27]): 44.6% | Activity (HeLa [28]): 0.01%
